In patent US9315458B2, “Nitrogen-containing heterocyclic compound” (Takeda Pharmaceutical Company Limited, priority 2014, dated 2016):

What was measured:
[1] = tested on: IP1 production in hippocampi; assay: Measurement of myo-inositol 1 phosphate (IP1) in hippocampus after oral administration; type: in vivo, male Long-Evans rats; conditions: 10 mg/kg oral, rat hippocampus, IP1/protein ratio, lithium chloride s.c.
Text: Animals used were male Long-Evans rats. They were used after acclimation for at least 1 week. Test compounds were suspended in 0.5% aqueous methylcellulose solution, and the suspension was orally administered to the rats. At a certain period of time after the oral administration, the solution prepared by dissolving lithium chloride in saline was subcutaneously administered into the rats. At a certain period of time after the subcutaneously administration, their bilateral hippocampi were isolated from the rats, and the wet weight thereof was measured. The hippocampi were homogenized with HEPES buffer, followed by centrifugation. The IP1 and protein concentrations in the supernatant were measured by IP-One HTRF assay kit (Cisbio Bioassays) and BCA protein assay kit (Thermo Scientific), respectively. The level of the IP1 production was expressed as the ratio of the concentration of IP1 to that of protein. The increase rate of the IP1 production was shown as a relative value when Vehicle administration group as 100%.

[2] = tested on: Scopolamine-induced memory deficits models; assay: Novel object recognition test; type: in vivo, male Long-Evans rats; conditions: scopolamine 0.1 mg/kg s.c., mean±standard error
Procedure: Novel object recognition test is comprised of two trials called the acquisition and the retention trials. Scopolamine-induced memory deficits models were used for the test, and animals used were male Long-Evans rats (7-week-old). On the day before the test, for acclimation, the rats were allowed to freely move about the test box (40×40×50 cm) for 10 minutes. On the test day, the rats were acclimated to the test room for about 1 hr prior to the test. The test compounds were orally administered to the rats in a single dose 2 hr before the acquisition trial. For induction of learning and memory deficits, scopolamine (0.1 mg/kg) was subcutaneously administered into the rats 30 min before the acquisition trial. For the acquisition trial, two identical objects (A1, A2) were placed in the test box. The rats were put in the test box for 3 min, and the duration exploring each object was measured. The retention trial was performed 4 hr after the acquisition trial. For the retention trial, the familiar object (A3) used for the acquisition trial and the novel object (B) different shape from A3 were placed in the test box. The rats were put in the test box for 3 min. The duration exploring each object in the acquisition trial and the retention trial, and the exploration rate (%) of novel object was calculated. The exploration rate (%) of novel object was expressed as (the duration exploring the novel object)/[(the duration exploring the novel object)+(the duration exploring the familiar object)]×100(%) at mean±standard error.

[3] = target: T1, human M1 receptor (hCHRM1) (Homo sapiens, UniProt P11229); assay: Measurement of M1 receptor positive allosteric modulator (M1PAM) activity, calcium fluorescence (FLIPRtetra) with acetylcholine at EC20; type: cell-based; conditions: for activity (%) at 10 μM: 10 μM test compound, 100% = acetylcholine 1 μM, 0% = DMSO, acetylcholine at EC20; for EC50: inflection point of concentration-dependent curve, CHO-K1 cells expressing hCHRM1, acetylcholine at EC20 (final 0.6-0.8 nM), read-out: IP value
T1 construct: expressed in transfected cells
T1 sequence (P11229 1-460): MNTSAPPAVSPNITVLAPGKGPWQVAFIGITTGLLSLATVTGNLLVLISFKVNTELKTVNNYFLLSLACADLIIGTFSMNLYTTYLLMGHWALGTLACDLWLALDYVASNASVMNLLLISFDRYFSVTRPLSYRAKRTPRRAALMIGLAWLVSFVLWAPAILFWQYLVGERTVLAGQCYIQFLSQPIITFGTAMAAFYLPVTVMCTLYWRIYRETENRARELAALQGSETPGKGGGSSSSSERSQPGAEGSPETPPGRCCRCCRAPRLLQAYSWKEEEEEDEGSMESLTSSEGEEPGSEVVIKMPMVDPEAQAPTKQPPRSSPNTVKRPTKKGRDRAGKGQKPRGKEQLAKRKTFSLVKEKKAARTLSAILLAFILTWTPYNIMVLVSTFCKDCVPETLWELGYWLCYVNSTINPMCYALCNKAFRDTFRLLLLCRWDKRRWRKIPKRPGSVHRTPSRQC
Procedure, shortened: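 CHO-K1 cells stably expressing hCHRM1, Fluo-4 AM loaded; compound added with acetylcholine at EC20 (final 0.6-0.8 nM), fluorescence read 1 min. Activity normalised to 1 μM acetylcholine (100%) and DMSO (0%); IP values taken as inflection point of the concentration-response curve.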

**Q.** What does the source list for Cc1ccc(Cc2cc3c(c(C)c2C)CN([C@H]2CCCC[C@@H]2O)C3=O)cn1 [Example 25, 2-((1S,2S)-2-hydroxycyclohexyl)-4,5-dimethyl-6-((6-methylpyridin-3-yl)methyl)isoindolin-1-one]?
**A.** increase rate at 10 mg/kg (% of Vehicle) [1]: 32 % of Vehicle; exploration rate (%) of novel object ([2]; 10 mg/kg oral 2 hr before acquisition trial, control 62.37±3.24%, solvent-scopolamine 48.39±2.01%): 57.55±5.03%; activity (%) at 10 μM [3]: 90%; EC50 [3]: 10 nM

**Q.** What does the source list for COc1ccc(Cc2cc3c(c(C)c2C)CN([C@H]2COCC[C@@H]2O)C3=O)cc1 [Example 18, 2-[(3S,4S)-4-hydroxytetrahydro-2H-pyran-3-yl]-6-(4-methoxybenzyl)-4,5-dimethyl-2,3-dihydro-1H-isoindol-1-one]?
**A.** increase rate at 10 mg/kg (% of Vehicle) [1]: 40 % of Vehicle; exploration rate (%) of novel object ([2]; 3 mg/kg oral 2 hr before acquisition trial, control 63.35±1.59%, solvent-scopolamine 52.08±2.47%): 59.11±3.87%; activity (%) at 10 μM [3]: 88%; EC50 [3]: 10 nM

**Q.** Cc1c(Cc2ccc(-n3cccn3)cc2)cc2c(c1F)CN([C@H]1COCC[C@@H]1O)C2=O [Example 20, 4-fluoro-2-[(3S,4S)-4-hydroxytetrahydro-2H-pyran-3-yl]-5-methyl-6-[4-(1H-pyrazol-1-yl)benzyl]-2,3-dihydro-1H-isoindol-1-one] was tested. Which “increase rate at 10 mg/kg (% of Vehicle)” value [1] did it give?
**A.** Its value is 108 % of Vehicle.

**Q.** And the “exploration rate (%) of novel object” value ([2]; 3 mg/kg oral 2 hr before acquisition trial, control 66.4±2.3%, solvent-scopolamine 50.4±2.4%)?
**A.** The value was 61.2±3.1%.

**Q.** And the “activity (%) at 10 μM” value [3]?
**A.** The value was 109%.

**Q.** What about the EC50 [3] of the same compound?
**A.** The EC50 was 5.5 nM.
